# Measured values as given in patent US20170368120A1, “Use of compositions of water/alcohol extracts of Antrodia cinnamomea cut-log wood cultivated fruiting body and solid-state cultivated mycelium as auxiliaries for anti-cancer agents” (Taiwan Leader Biotech Corp, priority 2016, published 2017).
# Legend:
# [1] = system: MKN45 gastric cancer cells; test: Gastric tumor growth in MKN45 tumor-bearing nude mice; type: in vivo; conditions: 5-FU injection
# Source text: In this example, the effects of the A. cinnamomea composition of solid-state cultivated mycelium water/alcohol extracts and cut-log wood cultivated fruiting body water/alcohol extracts on gastric tumor growth were further evaluated in an animal model. The test A. cinnamomea compositions included 5% FB/95% SC, 10% FB/90% SC, 20% FB/80% SC, and 40% FB/60% SC, respectively. The animal used in the experiment is an immune deficient mouse (nude mice) implanted MKN45 gastric cancer cells. 10 days after the cancer cell implantation, the animals were orally given the tested A. cinnamomea compositions (300 mg/kg/day) by oral gavage for 21 days. The treated animals were scarified. The tumor was isolated and weighted, as the key indicator for assessing the inhibition of tumor growth.
# [2] = system: Human gastric cancer MKN-45 cells; test: Auxiliary effect on 5-FU in MKN-45 tumor-bearing nude mice; type: in vivo, Balb/c nu/nu mice; conditions: 5-FU alone 25 mg/kg ip three times a week
# Method: In this example, the auxiliary effect of the A. cinnamomea composition on the anti-tumor agent 5-FU was confirmed in an animal model. Balb/c nu/nu mice of six-week old, purchased from the National Laboratory Animal Center, were used in the test. The 5-FU (25 mg/kg, ip) treated group was used as positive group, with drug administration frequency of three times a week. The A. cinnamomea composition (L) of solid-state cultivated mycelium water/alcohol extract and cut-log wood cultivated fruiting body water/alcohol extract was orally administered to mice once a day with following dosages: 1× dose of 680 mg/kg, 0.5× dose of 340 mg/kg, 0.25× dose of 170 mg/kg and 0.125× dose of 85 mg/kg. If the mice had been injected with 5-FU, the L was orally treated four hours after the application of 5-FU. Human gastric cancer MKN-45 cells (3×10^6) were implanted into immune deficient nude mice, and the drug administration was started when the tumor size reached to 100˜200 mm^3. The tested animal groups included the control, 5-FU, 5FU+L, 5-FU+0.5L, 5-FU+0.25L and 5-FU+0.125L groups, with 8 mice in each group.
# CFU-GM in bone marrow = test: CFU-GM colony test in bone marrow of 5-FU treated mice; type: in vivo, C57BL/6 mice; conditions: 5-FU alone 200 mg/kg ip at first day; marrow at day 11
# Method: (§1) The effect of the A. cinnamomea composition (L) on recovering the blood cell reducing caused by the application of chemotherapy drug 5-FU was evaluated in the colony test of CFU-GM in bone marrow. C57BL/6 mice of eight-week old, purchased from the National Laboratory Animal Center, were used in the test. The tested animal groups included the control, 5-FU, 5FU+L, 5-FU+0.5L, 5-FU+0.25L and 5-FU+Angiotensin II (Aii) groups, with 6 mice in each group. After the intraperitoneal injection of 5-FU (200 mg/kg) at first day, the test drug A. cinnamomea composition (L) was orally administered to the animals, or the positive control drug Angiotensin II (Aii, 100 μg/kg) was intraperitoneally injected to the animals at day 4˜10. Dosages of the A. cinnamomea composition (L) were used as follow: 1× dose of 680 mg/kg, 0.5× dose of 340 mg/kg and 0.25× dose of 170 mg/kg. Whole blood was collected from cheek before sacrificing the animals at day 11, and the Complete Blood Count (CBC) was performed to record the number of blood cells, including white blood cells, red blood cells, lymphocytes and neutrophils in peripheral blood. The femur was removed from the sacrificed mouse at day 11 of the experiment. The bone marrow cells were collected for the cultivation of CFU-GM. Cells was cultured for 7 days, and the number of CFU-GM colonies was counted.
# [3] = system: blood cells in peripheral blood; test: Complete Blood Count in 5-FU treated mice; type: in vivo, C57BL/6 mice; conditions: 5-FU alone 200 mg/kg ip, compared to control
# Method: as §1
smiles,measurement,setting,value
"O=c1[nH]cc(F)c(=O)[nH]1 [5-FU, 5-fluorouracil]",tumor weight,[1],significant decrease in tumor weight
same,tumor weight,[2],0.85 g
same,CFU-GM colony number,CFU-GM in bone marrow,"1,869 colonies/10^6 marrow cells"
same,number of lymphocytes,[3],significantly reduced
same,number of neutrophils,[3],significantly reduced
same,number of red blood cells,[3],significantly reduced
same,number of white blood cells,[3],significantly reduced
